Reference: ChEMBL document CHEMBL1143475, “Investigation of factor Xa inhibitors containing non-amidine S1 elements” (Bioorg Med Chem Lett, 2005)

Experiments:
[1] = biological target: Coagulation factor X (Homo sapiens) (UniProt P00742); assay: Binding affinity as apparent association constant for human coagulation factor X
[2] = biological target: Thrombin and coagulation factor X (Homo sapiens) (UniProt P00734+P00742); assay: Anticoagulant potency against double prothrombin time; type: functional
[3] = biological target: Plasminogen (Homo sapiens) (UniProt P00747); assay: Binding affinity as apparent association constant for Plasmin
[4] = biological target: Serine protease 1 (Homo sapiens) (UniProt P07477); assay: Binding affinity as apparent association constant for Trypsin
[5] = biological target: Urokinase-type plasminogen activator (Homo sapiens) (UniProt P00749); assay: Binding affinity as apparent association constant for Urokinase
[6] = biological target: Prothrombin (Homo sapiens) (UniProt P00734); assay: Binding affinity as apparent association constant for Coagulation factor II
[7] = biological target: Tissue-type plasminogen activator (Homo sapiens) (UniProt P00750); assay: Binding affinity as apparent association constant for Tissue plasminogen activator
Chain of Tissue-type plasminogen activator (Homo sapiens) (P00750 36-562 limits assumed): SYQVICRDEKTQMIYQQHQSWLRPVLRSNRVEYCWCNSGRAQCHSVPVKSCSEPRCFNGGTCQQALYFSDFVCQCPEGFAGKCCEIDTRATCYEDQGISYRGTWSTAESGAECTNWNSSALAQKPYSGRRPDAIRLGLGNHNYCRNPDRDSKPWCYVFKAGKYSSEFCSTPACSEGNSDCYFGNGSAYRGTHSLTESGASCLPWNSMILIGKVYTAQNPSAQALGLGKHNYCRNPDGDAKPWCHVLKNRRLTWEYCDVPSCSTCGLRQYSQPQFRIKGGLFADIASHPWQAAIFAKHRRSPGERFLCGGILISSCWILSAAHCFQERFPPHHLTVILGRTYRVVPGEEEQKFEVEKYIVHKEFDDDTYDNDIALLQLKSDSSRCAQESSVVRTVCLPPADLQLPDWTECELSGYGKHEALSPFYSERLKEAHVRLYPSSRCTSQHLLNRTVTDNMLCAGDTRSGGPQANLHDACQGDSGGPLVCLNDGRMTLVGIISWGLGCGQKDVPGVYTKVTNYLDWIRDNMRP

Chain of Coagulation factor X (Homo sapiens) (P00742 41-179 limits assumed): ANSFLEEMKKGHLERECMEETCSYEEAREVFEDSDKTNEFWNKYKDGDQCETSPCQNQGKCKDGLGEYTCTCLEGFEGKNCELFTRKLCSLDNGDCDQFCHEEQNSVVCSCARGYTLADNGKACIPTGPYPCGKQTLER
Chain of Coagulation factor X (Homo sapiens) (P00742 235-488 limits assumed): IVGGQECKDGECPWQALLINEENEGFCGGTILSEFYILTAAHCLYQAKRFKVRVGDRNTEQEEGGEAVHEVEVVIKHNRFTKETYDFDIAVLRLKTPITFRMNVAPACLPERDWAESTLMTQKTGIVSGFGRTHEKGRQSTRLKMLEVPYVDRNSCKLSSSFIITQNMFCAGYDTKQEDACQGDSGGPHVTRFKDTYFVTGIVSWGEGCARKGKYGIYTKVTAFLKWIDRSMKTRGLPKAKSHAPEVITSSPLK
Chain of Thrombin and coagulation factor X (Homo sapiens) (P00742 whole entry, looked up, other chains not shown): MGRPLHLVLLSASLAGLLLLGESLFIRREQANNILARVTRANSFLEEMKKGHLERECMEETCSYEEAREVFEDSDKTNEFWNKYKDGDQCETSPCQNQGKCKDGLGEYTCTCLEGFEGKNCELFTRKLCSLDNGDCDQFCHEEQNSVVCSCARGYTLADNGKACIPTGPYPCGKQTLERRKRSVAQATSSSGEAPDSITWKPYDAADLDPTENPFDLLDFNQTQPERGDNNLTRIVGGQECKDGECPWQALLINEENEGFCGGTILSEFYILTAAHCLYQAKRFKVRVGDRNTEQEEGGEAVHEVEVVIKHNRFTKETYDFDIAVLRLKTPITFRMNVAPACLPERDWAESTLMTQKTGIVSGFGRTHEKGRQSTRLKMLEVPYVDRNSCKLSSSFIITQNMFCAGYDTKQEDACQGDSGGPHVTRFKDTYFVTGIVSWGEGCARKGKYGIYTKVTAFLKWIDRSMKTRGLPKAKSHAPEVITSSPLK
Chain of Serine protease 1 (Homo sapiens) (P07477 whole entry): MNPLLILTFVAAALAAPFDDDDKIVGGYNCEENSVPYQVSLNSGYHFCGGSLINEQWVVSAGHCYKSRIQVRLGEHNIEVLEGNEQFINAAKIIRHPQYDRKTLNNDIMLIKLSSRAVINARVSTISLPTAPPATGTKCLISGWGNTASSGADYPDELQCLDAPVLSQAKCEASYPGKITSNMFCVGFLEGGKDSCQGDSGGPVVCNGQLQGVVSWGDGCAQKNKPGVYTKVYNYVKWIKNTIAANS
Chain of Plasminogen (Homo sapiens) (P00747 97-580 limits assumed): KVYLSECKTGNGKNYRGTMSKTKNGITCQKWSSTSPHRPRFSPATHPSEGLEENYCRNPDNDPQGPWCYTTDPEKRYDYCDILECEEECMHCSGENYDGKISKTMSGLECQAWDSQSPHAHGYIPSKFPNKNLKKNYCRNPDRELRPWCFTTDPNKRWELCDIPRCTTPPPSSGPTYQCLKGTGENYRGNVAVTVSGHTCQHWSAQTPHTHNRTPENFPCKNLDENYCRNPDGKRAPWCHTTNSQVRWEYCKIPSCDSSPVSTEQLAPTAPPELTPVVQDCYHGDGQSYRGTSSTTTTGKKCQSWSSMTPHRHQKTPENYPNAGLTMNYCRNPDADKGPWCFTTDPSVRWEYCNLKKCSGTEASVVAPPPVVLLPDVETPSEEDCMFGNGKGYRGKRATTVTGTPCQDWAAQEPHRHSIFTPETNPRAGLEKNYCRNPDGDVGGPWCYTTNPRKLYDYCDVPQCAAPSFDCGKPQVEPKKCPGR
Chain of Plasminogen (Homo sapiens) (P00747 581-810 limits assumed): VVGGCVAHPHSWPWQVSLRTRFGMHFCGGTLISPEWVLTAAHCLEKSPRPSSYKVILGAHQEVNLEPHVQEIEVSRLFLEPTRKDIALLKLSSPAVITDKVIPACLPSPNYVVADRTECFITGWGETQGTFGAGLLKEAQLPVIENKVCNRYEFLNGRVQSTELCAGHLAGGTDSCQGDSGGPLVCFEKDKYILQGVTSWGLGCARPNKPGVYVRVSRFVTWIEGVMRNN

Structure (SMILES)	K ass [1]	PT [2]	also measured
COc1ccccc1C(=O)Nc1ccccc1NC(=O)OCC1CCN(c2ccncc2)CC1	20000 L/mol	–	–
COc1cccc(C(=O)Nc2ccccc2NC(=O)OCC2CCN(c3ccncc3)CC2)c1	3.3e+06 L/mol	10 µM	–
O=C(Nc1ccccc1NC(=O)C1C=CCCC1)OCC1CCN(c2ccncc2)CC1 (stereo unspecified)	200000 L/mol	–	–
COc1ccc(C(=O)Nc2ccccc2NC(=O)OCC2CCN(c3ccncc3)CC2)cc1	1.9e+07 L/mol	1.9 µM	–
O=C(Nc1ccccc1NC(=O)C1CCCCC1)OCC1CCN(c2ccncc2)CC1	40000 L/mol	–	–
O=C(Nc1ccccc1NC(=O)c1ccc(F)cc1)OCC1CCN(c2ccncc2)CC1	4.6e+06 L/mol	–	–
O=C(Nc1ccccc1NC(=O)c1ccc(Cl)cc1)OCC1CCN(c2ccncc2)CC1	3.5e+07 L/mol	1.9 µM	Ka [3]: < 10000 L/mol; Ka [4]: < 10000 L/mol; Ka [5]: < 10000 L/mol; Ka [6]: 20000 L/mol; Ka [7]: < 10000 L/mol
O=C(Nc1ccccc1NC(=O)c1ccc(I)cc1)OCC1CCN(c2ccncc2)CC1	1.4e+07 L/mol	6 µM	–
Cc1ccc(C(=O)Nc2ccccc2NC(=O)OCC2CCN(c3ccncc3)CC2)cc1F	5.8e+06 L/mol	7 µM	–
O=C(Nc1ccccc1NC(=O)c1ccccc1)OCC1CCN(c2ccncc2)CC1	1.6e+06 L/mol	–	–
O=C(Nc1ccccc1NC(=O)c1cccc(Cl)c1)OCC1CCN(c2ccncc2)CC1	4.1e+06 L/mol	12 µM	–
O=C(Nc1ccccc1NC(=O)C1=CCCCC1)OCC1CCN(c2ccncc2)CC1	900000 L/mol	–	–
O=C(Nc1ccccc1NC(=O)c1ccc(Cl)s1)OCC1CCN(c2ccncc2)CC1	3.3e+07 L/mol	2.6 µM	–
N#Cc1ccc(C(=O)Nc2ccccc2NC(=O)OCC2CCN(c3ccncc3)CC2)cc1	600000 L/mol	–	–
O=C(Nc1ccccc1NC(=O)c1cccc(O)c1)OCC1CCN(c2ccncc2)CC1	1e+06 L/mol	–	–
O=C(Nc1ccccc1NC(=O)c1ccc2cc[nH]c2c1)OCC1CCN(c2ccncc2)CC1	5.4e+07 L/mol	1.6 µM	–

Structure (SMILES)	K ass [1]	PT [2]	also measured
O=C(Nc1ccccc1NC(=O)c1ccc(Cl)o1)OCC1CCN(c2ccncc2)CC1	700000 L/mol	–	–
COc1ccc(C(=O)Nc2ccccc2NC(=O)OCC2CCN(c3ccncc3)CC2)cc1F	46 L/mol	1.1 µM	–
COc1ccc(C(=O)Nc2ccccc2NC(=O)C2CCN(c3ccncc3)CC2)cc1	2e+06 L/mol	9.7 µM	–
O=C(Nc1ccccc1NC(=O)c1ccc2c(c1)CCO2)OCC1CCN(c2ccncc2)CC1	600000 L/mol	–	–
COc1ccc(C(=O)Nc2ccccc2NC(=O)c2ccc(C(C)(C)C)cc2)cc1	7e+06 L/mol	> 50 µM	–
CC(C)(C)c1ccc(C(=O)Nc2ccccc2NC(=O)c2cccc(C(=N)N)c2)cc1	2.42e+08 L/mol	0.9 µM	–
Cc1ccc(C(=O)Nc2ccccc2NC(=O)OCC2CCN(c3ccncc3)CC2)cc1	6.3e+06 L/mol	8 µM	–
O=C(Nc1ccccc1NC(=O)c1ccc(OC(F)F)cc1)OCC1CCN(c2ccncc2)CC1	5e+06 L/mol	6 µM	–
Cc1ccc(C(=O)Nc2ccccc2NC(=O)OCC2CCN(c3ccncc3)CC2)cc1Cl	2.3e+06 L/mol	22 µM	–
Nc1cccc(C(=O)Nc2ccccc2NC(=O)OCC2CCN(c3ccncc3)CC2)c1	5.1e+06 L/mol	8 µM	–
O=C(Nc1ccccc1NC(=O)c1cccc(F)c1)OCC1CCN(c2ccncc2)CC1	2.5e+06 L/mol	17 µM	–
Cc1cccc(C(=O)Nc2ccccc2NC(=O)OCC2CCN(c3ccncc3)CC2)c1	5.9e+06 L/mol	–	–
O=C(Nc1ccccc1NC(=O)c1ccccc1Cl)OCC1CCN(c2ccncc2)CC1	300000 L/mol	–	–
O=C(Nc1ccccc1NC(=O)C1=CCCC1)OCC1CCN(c2ccncc2)CC1	700000 L/mol	–	–
O=C(Nc1ccccc1NC(=O)c1cccc(Cl)c1Cl)OCC1CCN(c2ccncc2)CC1	1.9e+07 L/mol	5 µM	–
O=C(Nc1ccccc1NC(=O)c1ccc(Br)cc1)OCC1CCN(c2ccncc2)CC1	3.8e+07 L/mol	1.8 µM	–
